From US4990521A, “4-(aroylamino)piperidine-butanimide derivatives” (Janssen Pharmaceutica, priority 1989, dated 1991)

Tests used:
[1] = Ricinus Oil Test in Rats (antidiarrheal activity); type: in vivo; conditions: compound 1 hour before 1 ml ricinus oil orally, no diarrhea in 50% of animals 1 hour after ricinus oil, fasted female Wistar rats; for ED50: Rattus norvegicus, po, 1 h; for Ricinus Oil Test ED50: oral, 60 min
Source text: The use of the compounds of formula (I), their N-oxide forms, pharmaceutically acceptable acid-addition salts and stereoisomeric forms thereof in the method of the present invention is based on their useful antidiarrheal activity. This property is clearly evidenced by the experimental data obtained in, for example, the "Ricinus oil Test in Rats". […] By virtue of their useful antidiarrheal activity, it is evident that the compounds of formula (I), their N-oxide forms, pharmaceutically acceptable acid addition salts and stereoisomeric forms can be used in the treatment of diarrhea.
Female Wistar rats were fasted overnight. Each animal was treated orally with a dose level of the compound to be tested. One hour thereafter, the animal received 1 ml of ricinus oil orally. Each animal was kept in an individual cage and 1 hour after the ricinus oil treatment, the presence or absence of diarrhea was noted. The ED50 value was determined as that dose in mg/kg body weight, at which no diarrhea was present in 50% of the tested animals. Said ED50 -values for the compounds of the present invention can be found in the first column of Table 1.

[2] = Tail Withdrawal Test in Rats (undesired central effects); type: in vivo; conditions: oral, tail in 55° C. water, suppression of withdrawal response exceeding 10 seconds in 50% of animals, fasted male Wistar rats; for ED50: Rattus norvegicus
Experimental: Male Wistar rats were fasted overnight. Each animal was treated orally with a dose level of the compound to be tested. The thus treated rats Were put into individual restraining cages. At various time periods after administration, the lower 5 cm portion of the tail was immersed into a cup filled with water at a constant temperature of 55° C. The typical tail withdrawal response was evaluated during a 10 seconds period after the immersion. ED50 values in mg/kg body weight were determined as that dose of the test compound capable of suppressing in 50% of the tested animals the typical tail withdrawal response during a time period exceeding 10 seconds. Said ED50 values obtained for the compounds of the present invention are gathered in Table 1 column two.

Row | Compound | ED50 [1] | ED50 [2] | Ricinus Oil Test ED50 [1] | Tail Withdrawal Test ED50 [2]
1 | CC(CC(C(=O)N(C)C)(c1ccccc1)c1ccccc1)N1CC[C@@H](NC(=O)c2cccc(Cl)c2[N+](=O)[O-])[C@H](O)C1 (relative stereo) [Compound 17] | 0.63 mg/kg | > 40 mg/kg | – | –
2 | CC(CC(C(=O)N(C)C)(c1ccccc1)c1ccccc1)N1CCC(NC(=O)c2cccc(C(F)(F)F)c2)C(O)C1 (single isomer, unassigned; (+)) [Compound 57, (+)-(3B,trans)-3-hydroxy-N,N,γ-trimethyl-α,α-diphenyl-4-[[3-(trifluoromethyl)benzoyl]amino]-1-piperidinebutanamide] | – | > 160 mg/kg | 0.31 mg/kg body weight | –
3 | CC(CC(C(=O)N(C)C)(c1ccccc1)c1ccccc1)N1CC[C@@H](NC(=O)c2ccccc2O)[C@H](O)C1 (relative stereo) [Compound 77, trans-3-hydroxy-4-[(2-hydroxybenzoyl)-amino]-N,N,γ-trimethyl-α,α-diphenyl-1-piperidinebutanamide] | 0.16 mg/kg | ≥ 40 mg/kg | – | –
4 | Cc1ccc([N+](=O)[O-])c(C(=O)N[C@@H]2CCN(C(C)CC(C(=O)N(C)C)(c3ccccc3)c3ccccc3)C[C@H]2O)c1 (relative stereo) [Compound 21] | ≤ 0.63 mg/kg | > 40 mg/kg | – | –
5 | CO[C@@H]1CN(C(C)CC(C(=O)N(C)C)(c2ccccc2)c2ccccc2)CC[C@H]1NC(=O)c1cccc(C(F)(F)F)c1 (relative stereo) [Compound 52, trans-3-methoxy-N,N,γ-trimethyl-α,α-diphenyl-4-[[3-(trifluoromethyl)benzoyl]amino]-1-piperidinebutanamide] | 2.5 mg/kg | 40 mg/kg | – | –
6 | CC(CC(C(=O)N(C)C)(c1ccccc1)c1ccccc1)N1CC[C@@H](NC(=O)c2cccc([N+](=O)[O-])c2Br)[C@H](O)C1 (relative stereo) [Compound 38] | 2.5 mg/kg | > 40 mg/kg | – | –
7 | CC(CC(C(=O)N(C)C)(c1ccccc1)c1ccccc1)N1CC[C@@H](NC(=O)c2c(Cl)cccc2Cl)[C@H](O)C1 (relative stereo) [Compound 5] | 0.31 mg/kg | ≥ 40 mg/kg | – | –
8 | CC(CC(C(=O)N(C)C)(c1ccccc1)c1ccccc1)N1CC[C@@H](NC(=O)c2cccc(Cl)c2N)[C@H](O)C1 (relative stereo) [Compound 69, trans-4-[(2-amino-3-chlorobenzoyl)amino]-3-hydroxy-N,N,γ-trimethyl-α,α-diphenyl-1-piperidinebutanamide] | < 0.63 mg/kg | > 40 mg/kg | – | –
9 | CC(CC(C(=O)N(C)C)(c1ccccc1)c1ccccc1)N1CC[C@@H](NC(=O)c2ccc(F)cc2[N+](=O)[O-])[C@H](O)C1 (relative stereo) [Compound 19] | 1.25 mg/kg | > 40 mg/kg | – | –
10 | CC(CC(C(=O)N(C)C)(c1ccccc1)c1ccccc1)N1CC[C@@H](NC(=O)c2cccc(N)c2O)[C@H](O)C1 (relative stereo) [Compound 68, trans-4-[(3-amino-2-hydroxybenzoyl)amino]-3-hydroxy-N,N,γ-trimethyI-α,α-diphenyl-1-piperidinebutanamide] | 0.63 mg/kg | > 40 mg/kg | – | –
11 | CC(CC(C(=O)N(C)C)(c1ccccc1)c1ccccc1)N1CC[C@@H](NC(=O)c2cc(Cl)ccc2N)[C@H](O)C1 (relative stereo) [Compound 47, trans-4-[(2-amino-5-chlorobenzoyl)amino]-3-hydroxy-N,N,γ-trimethyl-α,α-diphenyl-1-piperidinebutanamide] | 0.08 mg/kg | ~40 mg/kg | – | –
12 | COc1cc(Cl)ccc1C(=O)N[C@@H]1CCN(C(C)CC(C(=O)N(C)C)(c2ccccc2)c2ccccc2)C[C@H]1O (relative stereo) [Compound 30] | 0.63 mg/kg | ≥ 40 mg/kg | – | –
13 | COc1cc(N)ccc1C(=O)N[C@@H]1CCN(C(C)CC(C(=O)N(C)C)(c2ccccc2)c2ccccc2)C[C@H]1O (relative stereo) [Compound 75, trans-4[(4-amino-2-methoxybenzoyl)amino]-3-hydroxy-N,N,γ-trimethyl-α,α-diphenyl-1-piperidinebutanamide] | 2.5 mg/kg | > 40 mg/kg | – | –
14 | CC(CC(C(=O)N(C)C)(c1ccccc1)c1ccccc1)N1CC[C@@H](NC(=O)c2ccc(Cl)c(Cl)c2)[C@H](O)C1 (relative stereo) [Compound 2] | 0.63 mg/kg | > 160 mg/kg | – | –
15 | CC(CC(C(=O)N(C)C)(c1ccccc1)c1ccccc1)N1CC[C@@H](NC(=O)c2ccccc2OCc2ccccc2)[C@H](O)C1 (relative stereo) [Compound 29, trans-3-hydroxy-N,N,γ-trimethyl-α,α-diphenyl-4-[[2-(phenylmethoxy)benzoyl]amino]-1-piperidinebutanamide] | ≤ 0.63 mg/kg | ~40 mg/kg | – | –
16 | COc1cc(N)c(Cl)cc1C(=O)N[C@@H]1CCN(C(C)CC(C(=O)N(C)C)(c2ccccc2)c2ccccc2)C[C@H]1O (relative stereo) [Compound 50, trans-4-[(4-amino-5-chloro-2-methoxybenzoyl)amino]-3-hydroxy-N,N,γ-trimethyl-α,α-diphenyl-1-piperidinebutanamide] | 2.5 mg/kg | > 40 mg/kg | – | –
17 | CC(CC(C(=O)N(C)C)(c1ccccc1)c1ccccc1)N1CCC(NC(=O)c2cccc(C(F)(F)F)c2)C(O)C1 (single isomer, unassigned; (-)) [Compound 55, (-)-(3A,trans)-3-hydroxy-N,N,γ-trimethyl-α,α-diphenyl-4-[[3-(trifluoromethyl)benzoyl]amino]-1-piperidinebutanamide] | – | – | 1.0 mg/kg body weight | > 160 mg/kg body weight
18 | CC(CC(C(=O)N(C)C)(c1ccccc1)c1ccccc1)N1CC[C@@H](NC(=O)c2ccc(F)cc2N)[C@H](O)C1.O (relative stereo) [Compound 67, trans-4-[(2-amino-4-fluorobenzoyl)amino]-3-hydroxy-N,N,γ-trimethyl-α,α-diphenyl-1piperidinebutanamide monohydrate] | < 0.04 mg/kg | > 40 mg/kg | – | –
19 | CC(CC(C(=O)N(C)C)(c1ccccc1)c1ccccc1)N1CC[C@@H](NC(=O)c2ccc(Cl)cc2N)[C@H](O)C1 (relative stereo) [Compound 70, trans-4-[(2-amino-4-chlorobenzoyl)amino]-3-hydroxy-N,N,γ-trimethyl-α,α-diphenyl 1-piperidinebutanamide monohydrate] | < 0.63 mg/kg | > 40 mg/kg | – | –
20 | COc1cc(N)c(Cl)cc1C(=O)N[C@@H]1CCN(C(C)CC(C(=O)N(C)C)(c2ccccc2)c2ccccc2)C[C@H]1OC (relative stereo) [Compound 53, trans-4-[(4-amino-5-chloro-2-methoxybenzoyl)amino]-3-methoxy-N,N,γ-trimethyl-α,α-diphenyl-1-piperidinebutanamide] | 2.5 mg/kg | ~40 mg/kg | – | –
21 | CC(CC(C(=O)N(C)C)(c1ccccc1)c1ccccc1)N1CC[C@@H](NC(=O)c2cccc(Cl)c2)[C@H](O)C1 (relative stereo) [Compound 10] | 0.04 mg/kg | > 40 mg/kg | – | –
22 | COc1cc(NC(C)=O)c(Cl)cc1C(=O)N[C@@H]1CCN(C(C)CC(C(=O)N(C)C)(c2ccccc2)c2ccccc2)C[C@H]1O (relative stereo) [Compound 64, trans-4-[[4-(acetylamino)-5-chloro-2-methoxybenzoyl]amino]-3-hydroxy-N,N,γ-trimethyl-α,α-diphenyl-1-piperidinebutanamide] | 2.5 mg/kg | > 40 mg/kg | – | –
23 | COc1c(Cl)cc(Cl)cc1C(=O)N[C@@H]1CCN(C(C)CC(C(=O)N(C)C)(c2ccccc2)c2ccccc2)C[C@H]1O (relative stereo) [Compound 31] | 0.63 mg/kg | ~40 mg/kg | – | –
24 | CCCC(=O)c1ccc(OC)c(C(=O)N[C@@H]2CCN(C(C)CC(C(=O)N(C)C)(c3ccccc3)c3ccccc3)C[C@H]2O)c1 (relative stereo) [Compound 34] | < 2.5 mg/kg | > 40 mg/kg | – | –
25 | CC(CC(C(=O)N(C)C)(c1ccccc1)c1ccccc1)N1CC[C@@H](NC(=O)c2cc(Cl)cc(Cl)c2)[C@H](O)C1 (relative stereo) [Compound 7] | 0.31 mg/kg | > 40 mg/kg | – | –
26 | CC(CC(C(=O)N(C)C)(c1ccccc1)c1ccccc1)N1CC[C@@H](NC(=O)c2cccc(C(F)(F)F)c2)[C@H](O)C1 (relative stereo) [Compound 1, trans-3-hydroxy-N,N,γ-trimethyl-α,α-diphenyl-4-[[3-(trifluoromethyl)benzoyl]amino]-1-piperidinebutanamide] | 0.15 mg/kg | > 160 mg/kg | – | –
